Experimental data: BindingDB's records for doi:10.1016/j.bmcl.2019.04.027 (Gilead Sciences, 2019)

Legend:
[1] = Inhibition of NS5A in HCV genotype 2a JFH1 infected in human HuH7 replicon cells assessed as reduction in viral replication after 3 days by luciferase reporter gene assay
[2] = Inhibition of NS5A in HCV genotype 2b MD2b-1 infected in human HuH7 replicon cells assessed as reduction in viral replication after 3 days by luciferase reporter gene assay
[3] = Inhibition of NS5A in HCV genotype 3a S52 infected in human HuH7 transient chimeric replicon cells assessed as reduction in viral replication after 3 days by luciferase reporter gene assay
[4] = Inhibition of NS5A in HCV genotype 1b Con1 infected in human HuH7 replicon cells assessed as reduction in viral replication after 3 days by luciferase reporter gene assay
[5] = Inhibition of NS5A in HCV genotype 1a H77 infected in human HuH7 replicon cells assessed as reduction in viral replication after 3 days by luciferase reporter gene assay
[6] = Inhibition of NS5A L31M mutant in HCV genotype 2a J6 (M31) infected in human HuH7 replicon cells assessed as reduction in viral replication after 3 days by luciferase reporter gene assay
[7] = Inhibition of NS5A in HCV genotype 4a ED43 infected in human HuH7 replicon cells assessed as reduction in viral replication after 3 days by luciferase reporter gene assay
[8] = Inhibition of NS5A Y93C mutant in HCV genotype 1a infected in human HuH7 replicon cells assessed as reduction in viral replication after 3 days by luciferase reporter gene assay
[9] = Inhibition of NS5A L31M mutant in HCV genotype 1a infected in human HuH7 replicon cells assessed as reduction in viral replication after 3 days by luciferase reporter gene assay
[10] = Inhibition of NS5A Y93H mutant in HCV genotype 1b infected in human HuH7 replicon cells assessed as reduction in viral replication after 3 days by luciferase reporter gene assay
[11] = Inhibition of NS5A M28T mutant in HCV genotype 1a infected in human HuH7 replicon cells assessed as reduction in viral replication after 3 days by luciferase reporter gene assay
[12] = Inhibition of NS5A L31M mutant in HCV genotype 2a JFH1 (M31) infected in human HuH7 replicon cells assessed as reduction in viral replication after 3 days by luciferase reporter gene assay
[13] = Inhibition of NS5A in HCV genotype 4a ED43 infected in human HuH7 transient chimeric replicon cells assessed as reduction in viral replication after 3 days by luciferase reporter gene assay
[14] = Inhibition of NS5A Y93H mutant in HCV genotype 1a infected in human HuH7 replicon cells assessed as reduction in viral replication after 3 days by luciferase reporter gene assay
[15] = Inhibition of NS5A Q30E mutant in HCV genotype 1a infected in human HuH7 replicon cells assessed as reduction in viral replication after 3 days by luciferase reporter gene assay
[16] = Inhibition of NS5A Q30R mutant in HCV genotype 1a infected in human HuH7 replicon cells assessed as reduction in viral replication after 3 days by luciferase reporter gene assay
[17] = Inhibition of NS5A in wild type HCV genotype 1b infected in human HuH7 replicon cells assessed as reduction in viral replication after 3 days by luciferase reporter gene assay
[18] = Inhibition of NS5A Q30H mutant in HCV genotype 1a infected in human HuH7 replicon cells assessed as reduction in viral replication after 3 days by luciferase reporter gene assay
[19] = Inhibition of NS5A in wild type HCV genotype 1a infected in human HuH7 replicon cells assessed as reduction in viral replication after 3 days by luciferase reporter gene assay
[20] = Inhibition of NS5A L31M mutant in HCV genotype 2a JFH1 infected in human HuH7 replicon cells assessed as reduction in viral replication after 3 days by luciferase reporter gene assay
[21] = Inhibition of NS5A in HCV genotype 6a HK6 infected in human HuH7 replicon cells assessed as reduction in viral replication after 3 days by luciferase reporter gene assay
[22] = Inhibition of NS5A in HCV genotype 2a JFH1 (L31) infected in human HuH7 replicon cells assessed as reduction in viral replication after 3 days by luciferase reporter gene assay
[23] = Inhibition of NS5A in HCV genotype 5a SA13 infected in human HuH7 replicon cells assessed as reduction in viral replication after 3 days by luciferase reporter gene assay
[24] = Inhibition of NS5A in HCV genotype 6e D88 infected in human HuH7 replicon cells assessed as reduction in viral replication after 3 days by luciferase reporter gene assay
[25] = Inhibition of NS5A L31M mutant in patient derived HCV genotype 2b MD2b-1 infected in human HuH7 replicon cells assessed as reduction in viral replication after 3 days by luciferase reporter gene assay
[26] = Inhibition of NS5A in HCV genotype 2a J6 infected in human HuH7 replicon cells assessed as reduction in viral replication after 3 days by luciferase reporter gene assay
[27] = Inhibition of NS5A in HCV genotype 3a S52 infected in human HuH7 replicon cells assessed as reduction in viral replication after 3 days by luciferase reporter gene assay

SMILES | EC50 [2] | EC50 [3] | EC50 [4] | EC50 [5] | EC50 [6] | EC50 [7] | EC50 [12] | EC50 [13] | also measured
COC[C@H]1C[C@@H](c2ncc(-c3ccc4c(c3)COc3cc5c(ccc6nc([C@@H]7C[C@H](C)CN7C(=O)[C@@H](NC(=O)OC)C(C)C)[nH]c65)cc3-4)[nH]2)N(C(=O)[C@H](NC(=O)OC)c2ccccc2)C1 | 0.015 nM | 0.025 nM | 0.017 nM | 0.013 nM | 0.014 nM | 0.011 nM | – | – | EC50 [1]: 0.006 nM
COC[C@H]1C[C@@H](c2nc3ccc4cc5c(cc4c3[nH]2)OCc2cc(-c3cnc([C@@H]4CCCN4C(=O)[C@@H](NC(=O)OC)C(C)C)[nH]3)ccc2-5)N(C(=O)[C@@H](NC(=O)OC)C(C)C)C1 | 0.135 nM | 0.024 nM | 0.026 nM | 0.021 nM | 0.28 nM | – | 0.008 nM | 0.014 nM | EC50 [8]: 0.22 nM; EC50 [9]: 0.37 nM; EC50 [10]: 0.086 nM; EC50 [11]: 0.19 nM; EC50 [14]: 4.7 nM; EC50 [15]: 10 nM; EC50 [16]: 0.22 nM; EC50 [17]: 0.026 nM; EC50 [18]: 0.15 nM; EC50 [19]: 0.037 nM
COC(=O)N[C@H](C(=O)N1CCC[C@H]1c1ncc(-c2cc3c4c(c2)OCc2cc(-c5cnc([C@@H]6CCCN6C(=O)[C@@H](NC(=O)OC)C(C)C)[nH]5)cc(c2-4)OC3)[nH]1)C(C)C | – | 0.055 nM | 0.022 nM | 0.029 nM | 8.81 nM | – | – | 0.029 nM | EC50 [20]: 5.9 nM; EC50 [21]: 0.016 nM; EC50 [22]: 0.007 nM; EC50 [23]: 0.056 nM; EC50 [24]: 1.16 nM; EC50 [25]: 1.77 nM
COC[C@H]1C[C@@H](c2ncc(-c3ccc4c(c3)COc3cc5c(ccc6nc([C@@H]7CCCN7C(=O)[C@@H](NC(=O)OC)C(C)C)[nH]c65)cc3-4)[nH]2)N(C(=O)[C@H](NC(=O)OC)c2ccccc2)C1 | 0.009 nM | 0.017 nM | 0.019 nM | 0.011 nM | 0.013 nM | 0.007 nM | – | – | EC50 [1]: 0.006 nM
COC[C@H]1C[C@@H](c2ncc(-c3ccc4c(c3)COc3cc5c(ccc6nc([C@@H]7C[C@H]8C[C@@H]8N7C(=O)[C@@H](NC(=O)OC)C(C)C)[nH]c65)cc3-4)[nH]2)N(C(=O)[C@H](NC(=O)OC)c2ccccc2)C1 | 0.046 nM | 0.018 nM | 0.011 nM | 0.01 nM | 0.113 nM | 0.009 nM | – | – | EC50 [1]: 0.006 nM
CCO[C@H]1C[C@@H](c2nc3ccc4cc5c(cc4c3[nH]2)OCc2cc(-c3cnc([C@@H]4CCCN4C(=O)[C@@H](NC(=O)OC)C(C)C)[nH]3)ccc2-5)N(C(=O)[C@@H](NC(=O)OC)C(C)C)C1 | 0.265 nM | 0.048 nM | 0.018 nM | 0.015 nM | 0.378 nM | – | 0.007 nM | 0.02 nM | –
COC[C@H]1C[C@@H](c2ncc(-c3cc4c5c(c3)OCc3cc(-c6cnc([C@@H]7CC[C@H](C)N7C(=O)[C@@H](NC(=O)OC)C(C)C)[nH]6)cc(c3-5)OC4)[nH]2)N(C(=O)[C@H](NC(=O)OC)c2ccccc2)C1 | 0.29 nM | 0.12 nM | 0.016 nM | 0.016 nM | – | 0.013 nM | – | – | EC50 [21]: 0.022 nM; EC50 [26]: 0.48 nM; EC50 [23]: 0.081 nM; EC50 [24]: 0.11 nM
COC(=O)N[C@H](C(=O)N1CCC[C@H]1c1ncc(-c2ccc3c(c2)COc2cc4c(ccc5nc([C@@H]6CC[C@H](C)N6C(=O)[C@@H](NC(=O)OC)C(C)C)[nH]c54)cc2-3)[nH]1)C(C)C | – | – | 0.018 nM | 0.011 nM | 0.234 nM | 0.02 nM | 0.019 nM | – | EC50 [27]: 0.077 nM
COC[C@H]1C[C@@H](c2ncc(-c3ccc4c(c3)COc3cc5c(ccc6nc([C@@H]7C[C@H](COC)CN7C(=O)[C@@H](NC(=O)OC)C(C)C)[nH]c65)cc3-4)[nH]2)N(C(=O)[C@@H](NC(=O)OC)C(C)C)C1 | 0.18 nM | 0.206 nM | 0.034 nM | 0.024 nM | 0.061 nM | – | 0.01 nM | 0.036 nM | –
COC(=O)N[C@H](C(=O)N1[C@@H](C)CC[C@H]1c1ncc(-c2ccc3c(c2)COc2cc4c(ccc5nc([C@@H]6CC[C@H](C)N6C(=O)[C@@H](NC(=O)OC)C(C)C)[nH]c54)cc2-3)[nH]1)C(C)C | 0.063 nM | 0.02 nM | 0.012 nM | 0.008 nM | 0.28 nM | – | 0.014 nM | 0.008 nM | –
COC(=O)N[C@H](C(=O)N1CCC[C@H]1c1ncc(-c2ccc3c(c2)COc2cc4c(ccc5nc([C@@H]6C[C@H](C)CN6C(=O)[C@@H](NC(=O)OC)C(C)C)[nH]c54)cc2-3)[nH]1)C(C)C | 0.132 nM | 0.018 nM | 0.018 nM | 0.011 nM | 0.443 nM | – | 0.007 nM | 0.011 nM | –
COC[C@H]1C[C@@H](c2nc3ccc4cc5c(cc4c3[nH]2)OCc2cc(-c3cnc([C@@H]4CC[C@H](C)N4C(=O)[C@@H](NC(=O)OC)C(C)C)[nH]3)ccc2-5)N(C(=O)[C@@H](NC(=O)OC)C(C)C)C1 | 0.157 nM | 0.061 nM | 0.017 nM | 0.011 nM | 0.067 nM | – | 0.012 nM | 0.015 nM | –
COC[C@H]1C[C@@H](c2ncc(-c3ccc4c(c3)COc3cc5c(ccc6nc([C@@H]7C[C@@H]8C[C@H]8N7C(=O)[C@@H](NC(=O)OC)C(C)C)[nH]c65)cc3-4)[nH]2)N(C(=O)[C@H](NC(=O)OC)c2ccccc2)C1 | 0.028 nM | 0.025 nM | 0.02 nM | 0.013 nM | 0.021 nM | 0.009 nM | – | – | EC50 [1]: 0.007 nM
COC[C@H]1C[C@@H](c2nc3ccc4cc5c(cc4c3[nH]2)OCc2cc(-c3cnc([C@@H]4C[C@H](C)CN4C(=O)[C@@H](NC(=O)OC)C(C)C)[nH]3)ccc2-5)N(C(=O)[C@@H](NC(=O)OC)C(C)C)C1 | 0.166 nM | 0.058 nM | 0.019 nM | 0.014 nM | 0.106 nM | – | 0.009 nM | 0.022 nM | –
